For 2 compounds, Activity results are on record in ChEMBL document CHEMBL2074107, “Zoledronic acid is synergic with vinblastine to induce apoptosis in a multidrug resistance protein-1 dependent way: an in vitro study” (Cell Biol Int, 2006).

The structures appear in SMILES notation.

The target of this data set is Multidrug resistance-associated protein 1 (Homo sapiens, UniProt P33527). Nature of the data set: TP_TRANSPORTER: inhibition of apoptosis in hMRP1-expressing HEK293 cells. It is filed as functional, cell-based.
Multidrug resistance-associated protein 1, sequence (P33527 whole entry): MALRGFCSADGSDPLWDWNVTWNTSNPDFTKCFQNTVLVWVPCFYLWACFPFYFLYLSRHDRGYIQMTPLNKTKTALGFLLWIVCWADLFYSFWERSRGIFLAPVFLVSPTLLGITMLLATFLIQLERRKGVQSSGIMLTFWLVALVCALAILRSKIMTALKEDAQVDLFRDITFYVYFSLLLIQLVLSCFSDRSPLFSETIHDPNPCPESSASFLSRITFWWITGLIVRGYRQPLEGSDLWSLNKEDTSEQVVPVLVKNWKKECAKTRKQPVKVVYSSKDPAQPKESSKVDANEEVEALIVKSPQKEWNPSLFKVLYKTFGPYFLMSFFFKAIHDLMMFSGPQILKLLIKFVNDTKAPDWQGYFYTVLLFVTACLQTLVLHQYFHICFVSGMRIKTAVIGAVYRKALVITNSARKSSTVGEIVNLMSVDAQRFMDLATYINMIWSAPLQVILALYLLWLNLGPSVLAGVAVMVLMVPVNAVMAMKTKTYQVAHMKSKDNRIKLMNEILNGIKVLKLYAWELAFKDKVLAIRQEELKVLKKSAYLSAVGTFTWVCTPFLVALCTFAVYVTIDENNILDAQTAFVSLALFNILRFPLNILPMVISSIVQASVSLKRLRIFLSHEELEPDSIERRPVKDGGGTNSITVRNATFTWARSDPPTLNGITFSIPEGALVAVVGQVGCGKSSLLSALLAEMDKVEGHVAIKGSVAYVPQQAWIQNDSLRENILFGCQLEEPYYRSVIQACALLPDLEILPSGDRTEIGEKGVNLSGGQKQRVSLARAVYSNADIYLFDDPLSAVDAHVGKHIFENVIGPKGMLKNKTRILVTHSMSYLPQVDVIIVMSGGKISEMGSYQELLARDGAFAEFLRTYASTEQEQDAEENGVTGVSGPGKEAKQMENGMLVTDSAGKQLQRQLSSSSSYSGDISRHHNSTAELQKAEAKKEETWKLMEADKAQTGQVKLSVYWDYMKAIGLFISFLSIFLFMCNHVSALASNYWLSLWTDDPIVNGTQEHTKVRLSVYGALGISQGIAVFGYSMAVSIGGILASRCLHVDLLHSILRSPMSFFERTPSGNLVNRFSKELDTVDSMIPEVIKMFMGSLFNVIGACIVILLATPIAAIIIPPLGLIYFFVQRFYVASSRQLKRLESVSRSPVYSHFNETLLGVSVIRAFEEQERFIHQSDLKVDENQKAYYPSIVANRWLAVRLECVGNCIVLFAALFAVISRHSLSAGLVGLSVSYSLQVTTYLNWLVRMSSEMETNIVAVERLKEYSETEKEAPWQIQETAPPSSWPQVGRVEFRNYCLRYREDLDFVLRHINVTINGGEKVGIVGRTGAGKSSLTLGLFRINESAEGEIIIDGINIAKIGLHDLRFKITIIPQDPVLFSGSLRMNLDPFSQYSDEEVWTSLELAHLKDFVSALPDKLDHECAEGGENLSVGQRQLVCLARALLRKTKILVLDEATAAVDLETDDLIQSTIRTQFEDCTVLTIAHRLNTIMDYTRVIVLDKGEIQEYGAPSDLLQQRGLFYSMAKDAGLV

For `CC[C@]1(O)C[C@@H]2CN(CCc3c([nH]c4ccccc34)[C@@](C(=O)OC)(c3cc4c(cc3OC)N(C)[C@H]3[C@@](O)(C(=O)OC)[C@H](OC(C)=O)[C@]5(CC)C=CCN6CC[C@]43[C@@H]65)C2)C1` [VINBLASTINE], the Activity entry was “substrate []”.
As for `O.O=P(O)(O)C(O)(Cn1ccnc1)P(=O)(O)O` [ZOLEDRONIC ACID], the Activity entry was “substrate []”.
